# Data: publication PMC8691200 (Journal of Chemical Information and Modeling, 2021)
# Entries after “also recorded” stand apart in the source; their conditions may differ.
# How the values were obtained:
# SARS-CoV-2 [1] = conditions: Vero E6 cells; cited from earlier work
# SARS-CoV-2 [2] = conditions: Vero E6 cells, real-time polymerase chain reaction; cited from earlier work
# [3] = system: SARS-CoV-2 MEX-BC2/2020 strain; format: cell-based
structure (smiles),measurement,setting,value
COc1ccc2cc1Oc1ccc(cc1)C[C@H]1c3c(cc4c(c3Oc3cc5c(cc3OC)CCN(C)[C@@H]5C2)OCO4)CCN1C [Cepharanthine],CPE (% efficacy),SARS-CoV-2 [1],92%
"CCOC(=O)c1c(CSc2ccccc2)n(C)c2cc(Br)c(O)c(CN(C)C)c12 [Compound 1, Arbidol]",maximum inhibition of virus entry,SARS-CoV-2 [2],70%
same,cytotoxicity in viability assays,Vero E6 cells,dose-dependent trend of cytotoxicity
same,safety ratio,Vero E6 cells; African green monkey,2.3
same,compound precipitation or recrystallization in micrographs,"25 μM, 96 h incubation with infected cells",no observed compound precipitation or recrystallization
same,aqueous solubility,solubilized in DMSO or buffer (for salts),good aqueous solubility
N#C[C@@]1(c2ccc3c(N)ncnn23)O[C@H](CO)[C@@H](O)[C@H]1O [GS-441524],maximum % inhibition observed,[3],100%
same,prevention of virus-induced CPE,[3],prevented completely the virus-induced CPE; also recorded: completely prevented the virus-induced CPE
C=C[C@@]1(C)CC(=O)[C@]2(O)[C@@]3(C)[C@@H](O)CCC(C)(C)[C@@H]3[C@H](OC(=O)CCN(C)C)[C@H](OC(C)=O)[C@@]2(C)O1.Cl [NKH477],CPE (% efficacy),SARS-CoV-2 [1],45%
CC1=C[C@]23C(=O)[C@@H](C=C(CO)[C@@H](O)[C@]2(O)[C@H]1O)[C@H]1[C@@H](C[C@H]3C)C1(C)C [ingenol],CPE (% efficacy),SARS-CoV-2 [1],38.2%
CC(CN(C)C)CN1c2ccccc2CCc2ccccc21 (centres unmarked) [trimipramine],CPE (% efficacy),SARS-CoV-2 [1],48%
